Measured values as given in patent US7927820B2 (priority 2004, dated 2011).
Where two headings read alike, the source gives them in different places. Bridges are numbered along the chain shown (N, C = ends). Where no end group is shown, it is not given here.

Columns and labels:
[1] = target: N-type calcium channels in cell membranes isolated from rat brain (Rattus norvegicus, UniProt Q02294); format: binding
[2] = target: P/Q-type calcium channels (Homo sapiens, UniProt O00555); conditions: cited from earlier work
N-type calcium channels = N-type calcium channels (Homo sapiens, UniProt Q00975); conditions: cited from earlier work
Chain of N-type calcium channels (Q00975 whole entry, looked up): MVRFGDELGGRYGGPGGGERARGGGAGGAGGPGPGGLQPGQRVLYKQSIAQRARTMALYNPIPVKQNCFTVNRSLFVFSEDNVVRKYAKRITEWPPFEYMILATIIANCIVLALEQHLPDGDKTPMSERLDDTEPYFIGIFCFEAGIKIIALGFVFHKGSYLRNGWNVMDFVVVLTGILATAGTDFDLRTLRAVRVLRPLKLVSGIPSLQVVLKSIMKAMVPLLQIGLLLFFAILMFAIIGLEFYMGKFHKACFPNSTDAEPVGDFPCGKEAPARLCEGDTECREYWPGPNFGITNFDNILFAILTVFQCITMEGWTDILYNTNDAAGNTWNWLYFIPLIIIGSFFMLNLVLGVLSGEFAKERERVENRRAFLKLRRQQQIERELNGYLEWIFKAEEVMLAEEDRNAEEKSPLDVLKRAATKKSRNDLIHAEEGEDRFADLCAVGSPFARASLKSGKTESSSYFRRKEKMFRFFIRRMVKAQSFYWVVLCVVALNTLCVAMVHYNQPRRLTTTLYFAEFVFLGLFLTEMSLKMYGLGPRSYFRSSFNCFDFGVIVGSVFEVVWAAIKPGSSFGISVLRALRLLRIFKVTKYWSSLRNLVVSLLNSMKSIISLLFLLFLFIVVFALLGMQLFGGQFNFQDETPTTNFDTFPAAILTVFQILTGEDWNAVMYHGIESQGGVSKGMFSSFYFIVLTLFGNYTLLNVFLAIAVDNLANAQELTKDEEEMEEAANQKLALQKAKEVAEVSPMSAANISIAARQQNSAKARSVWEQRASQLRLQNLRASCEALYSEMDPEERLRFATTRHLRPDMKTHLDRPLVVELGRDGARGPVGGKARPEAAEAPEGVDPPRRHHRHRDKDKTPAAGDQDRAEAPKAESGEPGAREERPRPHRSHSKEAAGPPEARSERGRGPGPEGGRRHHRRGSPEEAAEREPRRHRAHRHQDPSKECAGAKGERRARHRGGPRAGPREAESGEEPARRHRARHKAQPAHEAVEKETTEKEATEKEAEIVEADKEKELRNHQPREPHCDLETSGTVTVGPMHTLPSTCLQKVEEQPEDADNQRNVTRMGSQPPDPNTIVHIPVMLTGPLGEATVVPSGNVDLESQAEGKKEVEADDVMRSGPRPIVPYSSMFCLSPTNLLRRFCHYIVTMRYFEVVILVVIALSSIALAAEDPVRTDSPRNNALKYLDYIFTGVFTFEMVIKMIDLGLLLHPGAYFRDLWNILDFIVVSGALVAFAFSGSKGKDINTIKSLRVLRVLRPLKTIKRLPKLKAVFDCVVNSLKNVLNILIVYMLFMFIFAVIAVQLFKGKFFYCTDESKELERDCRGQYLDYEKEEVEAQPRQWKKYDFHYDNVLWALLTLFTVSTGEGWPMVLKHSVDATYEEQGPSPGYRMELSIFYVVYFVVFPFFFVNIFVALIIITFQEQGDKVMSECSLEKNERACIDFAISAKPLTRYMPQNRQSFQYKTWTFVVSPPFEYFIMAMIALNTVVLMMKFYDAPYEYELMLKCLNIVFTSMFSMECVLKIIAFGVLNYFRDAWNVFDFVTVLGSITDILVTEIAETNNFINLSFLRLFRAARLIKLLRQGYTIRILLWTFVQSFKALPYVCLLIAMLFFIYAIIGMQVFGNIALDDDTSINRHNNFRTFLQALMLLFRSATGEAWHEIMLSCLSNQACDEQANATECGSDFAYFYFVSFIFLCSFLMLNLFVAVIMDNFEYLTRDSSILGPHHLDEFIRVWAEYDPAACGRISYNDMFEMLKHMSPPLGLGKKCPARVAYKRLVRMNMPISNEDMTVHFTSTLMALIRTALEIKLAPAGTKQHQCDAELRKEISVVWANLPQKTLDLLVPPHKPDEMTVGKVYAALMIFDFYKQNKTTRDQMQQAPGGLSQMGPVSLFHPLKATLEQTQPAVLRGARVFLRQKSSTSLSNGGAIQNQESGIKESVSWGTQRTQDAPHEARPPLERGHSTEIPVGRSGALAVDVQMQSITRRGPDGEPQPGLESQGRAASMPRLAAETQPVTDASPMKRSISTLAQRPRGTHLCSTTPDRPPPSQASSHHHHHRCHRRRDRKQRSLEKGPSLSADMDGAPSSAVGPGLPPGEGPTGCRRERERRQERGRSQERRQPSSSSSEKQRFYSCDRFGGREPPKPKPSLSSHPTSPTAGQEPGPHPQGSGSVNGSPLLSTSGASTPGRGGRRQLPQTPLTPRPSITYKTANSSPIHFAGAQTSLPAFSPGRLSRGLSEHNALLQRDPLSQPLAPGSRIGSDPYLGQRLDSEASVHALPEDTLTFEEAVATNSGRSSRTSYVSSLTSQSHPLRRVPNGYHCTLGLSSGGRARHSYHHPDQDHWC

Chain of N-type calcium channels in cell membranes isolated from rat brain (Q02294 whole entry, looked up): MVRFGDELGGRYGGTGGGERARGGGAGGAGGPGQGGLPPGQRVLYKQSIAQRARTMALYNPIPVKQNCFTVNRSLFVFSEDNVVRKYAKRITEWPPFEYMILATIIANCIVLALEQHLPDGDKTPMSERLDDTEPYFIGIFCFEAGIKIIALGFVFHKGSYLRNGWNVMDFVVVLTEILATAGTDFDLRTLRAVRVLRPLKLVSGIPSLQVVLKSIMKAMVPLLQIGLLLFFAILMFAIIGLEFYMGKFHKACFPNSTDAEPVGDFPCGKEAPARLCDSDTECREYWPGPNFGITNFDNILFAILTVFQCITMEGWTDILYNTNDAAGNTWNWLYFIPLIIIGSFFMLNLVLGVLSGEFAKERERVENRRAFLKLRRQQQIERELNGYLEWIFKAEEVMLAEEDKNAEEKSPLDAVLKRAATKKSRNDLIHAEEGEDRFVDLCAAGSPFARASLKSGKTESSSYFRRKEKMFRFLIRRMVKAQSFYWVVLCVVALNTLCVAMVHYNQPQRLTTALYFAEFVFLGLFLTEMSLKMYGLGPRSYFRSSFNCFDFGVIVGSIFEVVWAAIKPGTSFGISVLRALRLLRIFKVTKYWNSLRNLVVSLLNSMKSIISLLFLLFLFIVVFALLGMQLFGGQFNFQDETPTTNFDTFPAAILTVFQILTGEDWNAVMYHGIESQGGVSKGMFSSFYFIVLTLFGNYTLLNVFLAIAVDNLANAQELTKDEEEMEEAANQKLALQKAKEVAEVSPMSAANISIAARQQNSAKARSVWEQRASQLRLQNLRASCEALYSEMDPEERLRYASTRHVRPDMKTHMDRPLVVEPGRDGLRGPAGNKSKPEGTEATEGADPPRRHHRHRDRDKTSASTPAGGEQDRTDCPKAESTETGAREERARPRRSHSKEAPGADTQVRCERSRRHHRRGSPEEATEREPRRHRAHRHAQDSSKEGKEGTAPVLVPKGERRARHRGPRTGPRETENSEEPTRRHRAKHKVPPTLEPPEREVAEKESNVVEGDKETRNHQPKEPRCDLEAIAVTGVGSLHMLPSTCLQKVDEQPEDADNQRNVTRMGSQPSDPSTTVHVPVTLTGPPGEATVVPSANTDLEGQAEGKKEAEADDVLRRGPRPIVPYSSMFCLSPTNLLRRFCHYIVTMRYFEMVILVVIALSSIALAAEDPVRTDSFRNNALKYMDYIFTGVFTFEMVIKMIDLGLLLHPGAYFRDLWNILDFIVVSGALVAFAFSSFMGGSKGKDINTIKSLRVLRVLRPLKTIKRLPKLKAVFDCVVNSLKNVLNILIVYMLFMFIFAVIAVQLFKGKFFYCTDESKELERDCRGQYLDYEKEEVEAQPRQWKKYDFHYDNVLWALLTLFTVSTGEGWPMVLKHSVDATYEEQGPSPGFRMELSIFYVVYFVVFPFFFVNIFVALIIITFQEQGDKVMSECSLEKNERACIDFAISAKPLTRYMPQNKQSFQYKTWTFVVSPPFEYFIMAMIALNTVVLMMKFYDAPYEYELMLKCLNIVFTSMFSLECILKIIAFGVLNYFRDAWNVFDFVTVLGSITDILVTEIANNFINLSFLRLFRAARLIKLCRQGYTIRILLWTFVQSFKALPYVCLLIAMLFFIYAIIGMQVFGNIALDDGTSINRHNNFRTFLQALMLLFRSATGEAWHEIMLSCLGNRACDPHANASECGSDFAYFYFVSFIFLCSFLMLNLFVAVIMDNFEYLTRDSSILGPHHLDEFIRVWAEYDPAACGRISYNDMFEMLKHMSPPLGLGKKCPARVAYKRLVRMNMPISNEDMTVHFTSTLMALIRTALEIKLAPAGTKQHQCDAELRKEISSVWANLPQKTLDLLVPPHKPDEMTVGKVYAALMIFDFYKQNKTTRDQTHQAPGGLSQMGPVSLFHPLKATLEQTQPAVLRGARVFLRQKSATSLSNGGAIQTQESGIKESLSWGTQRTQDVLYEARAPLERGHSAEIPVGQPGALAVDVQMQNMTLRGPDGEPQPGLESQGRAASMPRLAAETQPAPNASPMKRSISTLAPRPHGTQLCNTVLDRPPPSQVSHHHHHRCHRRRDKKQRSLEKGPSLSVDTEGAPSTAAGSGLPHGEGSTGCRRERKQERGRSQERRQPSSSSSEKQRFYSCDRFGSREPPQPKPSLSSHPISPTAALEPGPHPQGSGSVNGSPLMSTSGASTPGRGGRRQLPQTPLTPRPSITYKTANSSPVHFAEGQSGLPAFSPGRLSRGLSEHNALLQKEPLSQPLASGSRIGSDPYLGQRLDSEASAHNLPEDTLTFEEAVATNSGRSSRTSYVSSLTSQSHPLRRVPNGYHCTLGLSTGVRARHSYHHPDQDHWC

Question: With “KKKCIAKDYGRCKWGGTPCCRGRGCICSIMGTNCECKPRLIMEGLGLA (disulfide 4-20, 12-25, 19-36, 27-34 (inferred)) [ω-Agatoxin, ω-Agatoxin IVA]” as the substance, how does the “relative binding affinity (order of displacement of [125I]GVIA binding)” value [1] read?
Answer: lowest relative binding affinity

Question: And the “P/Q-type calcium channel inhibition or binding (description)” value ([2]; literature)?
Answer: has been shown to bind

Question: For ω-conotoxin GVIA, which “N-type calcium channel block (description)” value (N-type calcium channels) is on record?
Answer: potent and selective blocker

Question: What about the “relative binding affinity (order of displacement of [125I]GVIA binding)” value [1] of the same substance?
Answer: highest relative binding affinity

Question: With ω-conotoxin MVIIC as the substance, how does the “N-type calcium channel block (description)” value (N-type calcium channels) read?
Answer: weak inhibitor

Question: And the “P/Q-type calcium channel inhibition or binding (description)” value [2]?
Answer: potent inhibitor
